Data: patent US7332480B2, “Compositions for the regulation of cytokine activity” (Yeda Research and Development Co. Ltd., priority 1992, dated 2008)

Experiments:
adjuvant arthritis = experiment: Adjuvant arthritis (AA) in rats; type: in vivo, Lewis rats
IDDM of NOD mice = experiment: Insulin dependent diabetes mellitus (IDDM) of NOD mice; type: in vivo; settings: H-9392 30 ng, glucosamine 10,000 ng; all the control mice had died (FIG. 41A)
[1] = system: secretion of active TNF-α by activated human CD4+ T cells; experiment: Bioassay of TNF-α activity using human CD4+ T cells derived from PBLs (human PBL bioassay); type: cell-based; settings: Table XXIII; conc range of 1 μg/ml-0.01 pg/ml; inconsistent = same result not obtained for all three bioassays
Description: Non adherent cells were eluted and washed.
Nophar, Y. et al. J. Immunol. (1988) 140 (10):3456-3460.

[2] = system: mortality after irradiation; experiment: Radioprotective effects in gamma-irradiated mice; type: in vivo, BALB/c mice; settings: 750 rads, three administrations
Description: Groups of female BALB/c mice, 8 weeks old, 5-10 mice per group, were injected subcutaneously with either saline (0.1 ml, control), H-9392 (30 ng/mouse), or glucosamine (10,000 ng/mouse) 1 day before irradiation, and weekly thereafter until termination of the experiment on day 30. All the mice were irradiated to a dose of 700 rads using a ^60Co gamma radiation source.
The mortality within the different groups of mice was then scored over a 30 day period. […] The group of mice which had been injected with glucosamine also fared better than the control group, showing a 20% mortality rate in the same period.
In a separate experiment, groups of BALB/c mice (5 mice to a group) were likewise exposed to 750 rads of gamma-rays, except that these groups of mice were treated with test substances (saline at 0.1 ml per mouse; H-9392 at 0.3, 3, 30 and 300 ng/mouse; and glucosamine at 1, 10 and 100 μg/mouse) on the day before irradiation, on the sixth day after irradiation, and once again on the thirteenth day after irradiation only. All treatment ceased after the third and last administration.

skin graft rejection = experiment: Skin allograft rejection in mice; type: in vivo, BALB/c mice; settings: 300 ng/mouse s.c. one day before grafting and weekly thereafter
Description: The effect of H-9392 was also tested in skin graft rejection experiments in mice. In particular, skin grafts from C57BL/6 donor mice (H-2^b) were applied to recipient BALB/c mice (H-2^d) according to the method of Baharav, E. et al. J. Immunol. Methods (1986) 90:143-144. The number of days to rejection was measured by the sloughing of the graft. The number of days to rejection was determined for a control group (injected with saline only, 0.1 ml), and test groups that received 3 ng or 300 ng of H-9392 by subcutaneous injection one day before grafting and weekly thereafter. The results, which are graphically represented in FIGS. 40 and 40A, reveal that the 3 ng/mouse dose delayed the level of skin graft rejection at 50% by 5 days!

[3] = system: experimental allergic asthma; experiment: Experimental allergic bronchial asthma in rats; type: in vivo, Brown Norway rats; settings: 30 ng s.c. on day 30, challenge on day 35; saline animals Grade 3 or 4
Description: Experimental allergic bronchial asthma is an immediate type hypersensitivity reaction in rats which have been immunized and then rechallenged by inhalation of the priming antigen in a aerosolized solution. (Edelman, et al., Am. Rev. Resp. Dis. (1988) 137:1033-37). The etiology and pathophysiology of this experimental disease closely parallel the naturally occurring human counterpart. […] V.), on day zero. Subsequent challenges consisted of a 5 minute period of inhalation of OVA (1 mg/ml solution) aerosolized in a Devilbiss Nebulizer operated at an airflow of 6 L/min. Respiratory Distress (RD) responses were scored as Grade 0, no signs of distress; Grade 1, tachypnea; Grade 2, moderate labored breathing; Grade 3 severe labored breathing with mouth open; Grade 4, loss of consciousness and muscular tone. Sixteen days following primary immunization all animals were exposed to an initial aerosolized challenge to establish the positive control. The animals were coded so that the observer was ignorant of the subject animal's history. […] On day thirty, the animals were divided into 2 groups and given either saline (control Group A) or 30 ng of substance H-9392, s.c., (Group B) and challenged on day 35 as above.

## O=C(O)C1=C[C@H](O)[C@@H](OS(=O)(=O)O)[C@H](O[C@H]2[C@H](O)[C@@H](NS(=O)(=O)O)C(O)O[C@@H]2CO)O1 (stereo partly drawn) [H-9392, 2-O-Sulfate-4-deoxy-4-en-iduronic acid-(α-1,4)-2-deoxy-2-N-sulfateglucosamine]
Adjuvant arthritis; treatment from day 12, dexamethasone phosphate daily or weekly, disaccharide weekly
  course of AA after treatment was ended: continued to exhibit improved AA scores
Adjuvant arthritis; weekly or daily, beginning at day 0 or at day 12 (FIGS. 38D, 38E)
  effect on severity of AA: positive suppression of the severity of AA in all cases
Adjuvant arthritis; weekly s.c. from day 12, dexamethasone phosphate 100 μg or disaccharide 120 ng per rat (FIG. 38G)
  severity of the AA score at 30 days post-induction: almost complete suppression
IDDM of NOD mice
  mice died by age 5 months: none
[1]
  Bioassay of TNF Activity: Inconsistent
[2]; 30 ng/mouse, 5 mice to a group
  mice died by the thirtieth day after irradiation: one
[2]; 300 ng H-9392, 1 μg glucosamine
  activity in suppressing mortality after irradiation: moderate activity
Skin graft rejection
  difference at 50% rejection relative to control: failed to produce a significant difference
[3]
  respiratory distress after secondary challenge: mere tachypnea
